Where “and” joins values, the source holds several entries; their conditions need not be identical. Equal values may be shown once.
Key:
[1] = system: subcutaneous M109 tumors; test: subcutaneous M109 tumors treated with TAXOL with or without EC72; assay type: in vivo, Balb/c mice
Protocol: The protocol described in Example 5 was followed except that animals were injected i.v. at the beginning of the treatment period and were injected i.p. later in the treatment period.
Tumor volumes were calculated using the equation V=a×b^2/2, where “a” is the length of the tumor and “b” is the width expressed in millimeters. The tumors were measured using calipers.

[2] = toxicity of TAXOL / EC72 regimens (weight loss, blood chemistry, tissue pathology); assay type: in vivo, Balb/c mice; parameters: key to Liver: mice with Degeneration / Liver: grade of Degeneration: “0.5” = Occasionally present; “1” = Mild; “2” = Moderate; “3” = Marked
Description: The toxicity of each tested regimen was also monitored by measuring weight loss, blood chemistry, and tissue pathology.

[3] = system: folate receptor-positive KB cells; test: in vitro cytotoxicity assay (bromodeoxyuridine-based ELISA); assay type: cell-based
Protocol: A compound denominated as EC72 (see scheme 1) was evaluated using an in vitro cytotoxicity assay that predicts the ability of the drug to inhibit the growth of folate receptor-positive KB cells. This compound comprises a folate analog linked to mitomycin C prepared according to the protocol depicted in scheme 2. The KB cells were exposed for 15 minutes at 37° C. to the indicated concentrations of EC72, free mitomyicn C (drug #1), or to EC72 and at least a 100-fold excess of folic acid. The cells were then rinsed once with fresh culture medium and incubated in fresh culture medium for 72 hours at 37° C. Cell viability was assessed using a bromodeoxyuridine-based ELISA assay.

[4] = system: M109 tumor; test: survival of intraperitoneal M109 tumor-bearing mice; assay type: in vivo, Balb/c mice; conditions: for increase in lifespan (ILS): 1800 mmoles/kg i.p. once daily beginning on day 5 after tumor cell inoculation, FIG. 2
Protocol: (§1) The effectiveness of EC72 for promoting survival of tumor-bearing mice was evaluated in vivo using M109 tumor-bearing Balb/c mice. There were two goals of this study: i) to determine if daily intraperitoneal treatment with EC72 could prolong the lives of folate receptor-positive tumor-bearing mice beyond what mitomycin C could do when tested under an identical dosing regimen, and ii) to examine the pathological effects of EC72 treatment on normal tissues, including kidney tissue which is folate receptor-positive tissue. Although most normal tissues contain very low levels of folate receptor, the proximal tubules of the kidney express appreciable numbers of folate receptors. Thus, the in vivo evaluation of EC72 also enabled evaluation of the extent of kidney-specific damage caused by the systemic administration of folate-mitomycin conjugates.
Balb/c mice (5 mice/group) were given an intraperitoneal injection with 1×10^6 M109 cells. The mice were then given an intraperitoneal injection once daily with […]/kg of EC72 or mitomycin C (control mice were injected with PBS) beginning on day 5 after tumor cell innoculation (ILS=increased life span (i.e., median survival time)).
Thus, a group of animals were given intraperitoneal injections of EC72 plus a 10-fold excess of free folic acid.

[5] = for myelosuppression / kidney damage: M109 tumor-bearing mice, daily i.p. treatment
Protocol: as §1
Major organs were also collected in both the EC72 and mitomycin C-treated animals (following euthanasia), and they were sent to an independent pathologist for examination.

[6] = system: subcutaneous M109 tumors; test: growth of subcutaneous M109 tumors, EC72 i.v. then i.p.; assay type: in vivo, Balb/c mice; conditions: 1800 nmoles/kg qd×5 for six weeks from day 4, i.v. (12 injections) then i.p.; FIG. 4
Protocol: The anti-tumor activity of EC72 when administered intravenously (i.v.) to tumor-bearing animals, was evaluated in Balb/c mice bearing subcutaneous M109 tumors. Thus, a protocol similar to that described in Example 3 was followed except that the compounds were administered i.v. (described below) and the tumors were subcutaneous. Four days post tumor inoculation in the subcutis of the right axilla, mice were injected i.v. qd×5 for six weeks with 1800 nmoles/kg of EC72.
Tumor growth was determined at 2-day intervals in each treatment group until the tumors grew to at least 1500 mm3. The tail veins became excessively bruised and inaccessible after 12 i.v. injections so dosing was continued i.p. following the same qd×5 schedule. […] Thus, EC72 may not have reached the distal subcutaneous tumor efficiently following i.p. administration of EC72, a limitation not encountered when EC72 was administered i.v. during the initial phase of the therapy.

[7] = system: subcutaneous M109 tumors; test: survival of mice bearing subcutaneous M109 tumors, delayed start of EC72 treatment; assay type: in vivo, Balb/c mice; conditions: for Median Survival: EC72 1800 nmol/kg i.v. qd×5 for 4 weeks
Protocol: The protocol described in Example 4 was followed except that mice were injected i.v. throughout the treatment period and were treated with EC72 for 4 weeks. Balb/c mice (n=5) were injected subcutaneously in the subcutis of the right axilla with 1×10^6 M109 cells and were treated qd×5 for 4 weeks with 1800 nmol/kg of EC72. EC72 was administered i.v. beginning on the designated day post tumor cell inoculation (PTI; see Table 3). Animal survival was monitored daily, and mice showing a complete response were those that were tumor-free at day 60 PTI.

[8] = molecular target: T1, folate receptors (FRs) on KB cells (Homo sapiens, UniProt P15328); test: relative affinity assay (3H-folic acid displacement); assay type: binding; conditions: 100 nM 3H-folic acid, 15 min on ice, folic acid set to 1, FIG. 9
T1 construct: FR-positive KB cells were gently trypsinized; endogenous in cells; host or cells: KB cells
T1 sequence (P15328 25-234): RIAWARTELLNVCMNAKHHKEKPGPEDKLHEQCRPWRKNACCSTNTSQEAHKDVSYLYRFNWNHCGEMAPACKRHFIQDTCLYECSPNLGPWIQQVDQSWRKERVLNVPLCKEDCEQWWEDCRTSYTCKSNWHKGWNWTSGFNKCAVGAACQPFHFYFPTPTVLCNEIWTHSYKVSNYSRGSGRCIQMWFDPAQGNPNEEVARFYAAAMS
Protocol: The affinity of EC72 for folate receptors (FRs) relative to folate was determined according to a previously described method (Westerhof, G. R., J. H. Schomagel, et al. (1995) Mol. Pharm. 48: 459-471) with slight modification. Briefly, FR-positive KB cells were gently trypsinized in 0.25% trypsin in phosphate-buffered saline (PBS) at room temperature for 3 minutes and then diluted in folate-free RPMI (FFRPMI) containing 10% heat-inactivated fetal calf serum (HIFCS). Following a 5 min 800×g spin and one PBS wash, the final cell pellet was suspended in FFRPMI 1640 (no serum). Cells were incubated for 15 min on ice with 100 nM ^3H-folic acid in the absence and presence of increasing concentrations of EC72 or folate. Samples were centrifuged at 10,000×g for 5 min, and then the cell pellets were suspended in buffer, transferred to individual vials containing 5 mL of scintillation cocktail, and then counted for radioactivity. Negative control tubes contained only the ^3H-folic acid in FFRPMI (no competitor). Positive control tubes contained a final concentration of 1 mM folic acid, and CPMs measured in these samples (representing non-specific binding of label) were subtracted from all samples.

[9] = system: FR-positive KB cells; test: in vitro dose response, 3H-thymidine incorporation (DNA synthesis); assay type: cell-based; conditions: 0.1 mM folic acid (competitor)
Protocol: KB cells were seeded in 12-well Falcon plates and allowed to form near-confluent monolayers overnight. Following one rinse with 1 mL of fresh FFRPMI/HIFCS, each well received 0.5 mL of FFRPMI/HIFCS containing increasing concentrations of EC72 in the presence of absence of 0.1 mM folic acid (competitor). Cells were incubated for 15 min at 37° C. and then rinsed four times with 0.5 mL of FFRPMI/HIFCS. 0.5 mL of fresh FFRPMI/HIFCS was then added to each well, and cells were chased for a total of 72 h at 37° C. Two hours before the end of the incubation, media was replaced in each well with 0.5 mL FFRPMI/HIFCS containing 5 μCi of ^3H-thymidine. Monolayers were then washed 3 times with 0.5 mL of PBS and then precipitated with 1 ml of 10% cold trichloroacetic acid. The trichloroacetic acid solution was collected and discarded, and precipitated material was sequentially dissolved in 0.5 mL 0.25 N NaOH and 1% sodium dodecyl sulfate for 15 min at room temperature. Samples were then counted for radioactivity using a Packard gamma counter. Final tabulated values were expressed as a percentage of radioactivity incorporated into untreated cell samples.

[10] = system: Folate receptor-positive M109 P0 tumor cells; test: in vivo dose response, intraperitoneal M109 tumor; parameters: species or system mice (female Balb/C strain)
Protocol: Six to seven week-old mice (female Balb/C strain) were obtained from Harlan, Inc., Indianapolis, Ind. The mice were maintained on Harlan's folate-free chow for a total of three weeks prior to the onset of and during this experiment. Folate receptor-positive M109 P0 tumor cells (0.5×10^6 cells per animal) were inoculated in the upper peritoneal cavity 4 days prior to the onset of dosing. The formulations indicated in FIG. 11 were dosed intraperitoneally qd×30 starting on day 4 post tumor inoculation, and animal survival was monitored daily.

[11] = system: Folate receptor-negative 4T-1 tumor; test: in vivo activity on folate receptor-negative tumor; parameters: species or system mice (female Balb/C strain); conditions: i.p. qd×30 from day 4 post tumor inoculation; FIG. 12
Protocol: Six to seven week-old mice (female Balb/C strain) were obtained from Harlan, Inc., Indianapolis, Ind. The mice were maintained on Harlan's folate-free chow for a total of three weeks prior to the onset of and during this experiment. Folate receptor-negative 4T-1 tumor cells (1×10^6 cells per animal) were inoculated in the subcutis of the right axilla. The formulations indicated in FIG. 12 were dosed intraperitoneally qd×30 starting on day 4 post tumor inoculation, and tumor volume as well as animal survival were monitored daily. EC72 had no activity against a subcutaneous folate-receptor-negative 4T-1 tumor.

[12] = Taxol 15 mg/kg with EC72 0 or 1800 nmol/kg, 6 mice/cohort
[13] = Taxol 15 mg/kg with EC72 0 or 1800 nmol/kg, 6 mice/cohort, listed as Taxol
[14] = tissue pathology, TAXOL 15 mg/kg, n = 6 mice

Compound: CC(=O)O[C@H]1C(=O)[C@@]2(C)[C@H]([C@H](OC(=O)c3ccccc3)[C@]3(O)C[C@H](OC(=O)[C@H](O)[C@@H](NC(=O)c4ccccc4)c4ccccc4)C(C)=C1C3(C)C)[C@]1(OC(C)=O)CO[C@@H]1C[C@@H]2O [TAXOL®, paclitaxel]
- day PTI until which tumors failed to grow ([1]; TAXOL 15 mg/kg, from day 12 PTI): 21 day PTI
- log cell kill (LCK) ([1]; TAXOL 20 mg/kg i.v. with or without EC72 1800 nmol/kg qd×5 for 4 weeks, from day 12 PTI, FIG. 7): 1.3
- day PTI until which tumors failed to grow ([1]; TAXOL 20 mg/kg, from day 12 PTI): 29 day PTI
- long term survivors ([1]; TAXOL 20 mg/kg, n=5): none of the 5 mice
- CR (complete response) [1, 12]: 2 of the 6
- NR (no response) [1, 12]: 0
- PR (partial response) [1, 12]: 4 of the 6
- CR (complete response) [1, 13]: 2
- PR (partial response) [1, 13]: 4
- Log Cell Kill (LCK) ([1]; Taxol 15 mg/kg with EC72 0 or 1800 nmol/kg, from day 12 PTI, 6 mice/cohort, FIG. 8): 0.6
- appearance and body weight during dosing ([2]; TAXOL 20 mg/kg with or without EC72 1800 nmol/kg): appeared sick, experienced weight loss
- Bone: mice Normal [2, 14]: 6
- Heart: mice Normal [2, 14]: 6
- Kidney: mice Normal [2, 14]: 6
- Liver: mice Normal [2, 14]: 5
- Spleen: mice Normal [2, 14]: 6
- Liver: grade of Degeneration ([2]; tissue pathology, grade in brackets): 1(1)
- Liver: mice with Degeneration ([2]; tissue pathology, number before the bracket, n = 6 mice): 1(1)

Compound: CO[C@@]12[C@H](COC(N)=O)C3=C(C(=O)C(C)=C(NCCSSC[C@H](NC(=O)CC[C@H](NC(=O)c4ccc(NCc5cnc6nc(N)[nH]c(=O)c6n5)cc4)C(=O)O)C(=O)O)C3=O)N1C[C@@H]1N[C@@H]12 [EC72]
- cytotoxicity compared with free mitomycin C ([3]; 15 minutes exposure at 37° C., 72 hours chase, FIG. 1): equal to that of free mitomycin C
- cytotoxicity in the presence of excess free folic acid ([3]; at least a 100-fold excess of folic acid): blocked
- increase in lifespan (ILS) [4]: 178%
- animals tumor-free by day 70 post tumor cell inoculation ([4]; 30 daily i.p. injections): 1 of 4
- outcome of group coinjected with folic acid ([4]; EC72 plus a 10-fold excess of free folic acid): all mice in this group eventually died from the tumor burden
- myelosuppression / kidney damage [5]: no evidence of myelosuppression or kidney damage
- blood-urea-nitrogen and creatine levels ([5]; following 30 consecutive daily injections): normal
- effect on growth of subcutaneous M109 tumor [6]: effective in delaying the growth of the M109 tumor
- Median Survival ([7]; initiation PTI 1): 56 days
- Median Survival ([7]; initiation PTI 3): 54 days
- Median Survival ([7]; initiation PTI 7): 28 days
- Median Survival ([7]; initiation PTI 12): 26 days
- anti-tumor response of EC72 alone ([7]; EC72 treatment initiated 12 days PTI, subcutaneous tumor model): failed to produce an anti-tumor response
- % ILS ([7]; initiation PTI 1): 133%
- Complete Responses (tumor-free at day 60 PTI) ([7]; initiation PTI 1, n = 5): 2 of 5 and 2
- Partial Responses ([7]; initiation PTI 1, n = 5): 3 of 5 and 3
- % ILS ([7]; initiation PTI 3): 125%
- Complete Responses (tumor-free at day 60 PTI) ([7]; initiation PTI 3, n = 5): 0
- Partial Responses ([7]; initiation PTI 3, n = 5): 5
- % ILS ([7]; initiation PTI 7): 17%
- Complete Responses (tumor-free at day 60 PTI) ([7]; initiation PTI 7, n = 5): 0
- Partial Responses ([7]; initiation PTI 7, n = 5): 5
- % ILS ([7]; initiation PTI 12): 8%
- Complete Responses (tumor-free at day 60 PTI) ([7]; initiation PTI 12, n = 5): 0 of 5 and 0
- Partial Responses ([7]; initiation PTI 12, n = 5): 5
- relative affinity for the folate receptor [8]: 0.59
- DNA synthesis inhibition in the presence of excess free folic acid [9]: effectively blocked any DNA synthesis inhibition
- animals showing a complete response ([10]; 1800 nmol/kg i.p. qd×30): 1 of 4
- increase in lifespan ([10]; 1800 nmol/kg i.p. qd×30 from day 4 post tumor inoculation): 240%
- dose dependence of activity in M109 tumor-bearing mice ([10]; 100, 400, 1800 nmol/kg i.p. qd×30 from day 4, FIG. 11): dose-dependent activity
- activity against subcutaneous folate-receptor-negative 4T-1 tumor [11]: no activity

Compound: CO[C@@]12[C@H](COC(N)=O)C3=C(C(=O)C(C)=C(N)C3=O)N1C[C@@H]1N[C@@H]12 [mitomycin C, reference compound]
- increase in lifespan (ILS) [4]: 39%
- increased life span (median survival time) over PBS control group ([4]; repeat experiment, 30 daily i.p. injections, FIG. 3): ~25%
- myelosuppression / kidney damage [5]: extensive myelosuppression
- cause of death of treated animals ([5]; mouse, in vivo, ip): died from apparent mitomycin C-related side effects
